Values joined by “and” are separate entries in the source; they are usually repeats but may differ in a detail not shown here. Equal values may be shown once.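 Grown in 96-well plates, cells were treated for 48 hours with each compound at five concentrations. Insufficient inhibition: endpoint recorded as highest concentration tested. Abbreviation: GI50, concentration required for 50% inhibition of growth. TGI is the concentration that stops growth completely.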
How the values were obtained:
Assay in all cases: growth of human tumour cells (NCI), 48 h
[1] = system: 786-0 renal
[2] = system: A498 renal
[3] = system: A549 NSCLC
[4] = system: ACHN renal
[5] = system: BT-549 breast
[6] = system: CAKI-1 renal
[7] = system: CCRF-CEM leukemia
[8] = system: COLO 205 colon
[9] = system: DU-145 prostate
[10] = system: EKVX NSCLC
[11] = system: HCC-2998 colon
[12] = system: HCT-116 colon
[13] = system: HCT-15 colon
[14] = system: HL-60(TB) leukemia
[15] = system: HOP-62 NSCLC
[16] = system: HOP-92 NSCLC
[17] = system: HS 578T breast
[18] = system: HT29 colon
[19] = system: K-562 leukemia
[20] = system: KM12 colon
[21] = system: LOX IMVI melanoma
[22] = system: M14 melanoma
[23] = system: MALME-3M melanoma
[24] = system: MCF7 breast
[25] = system: MDA-MB-231 breast
[26] = system: MDA-MB-435
[27] = system: MDA-N
[28] = system: MOLT-4 leukemia
[29] = system: NCI-H226 lung
[30] = system: NCI-H23 lung
[31] = system: NCI-H460 lung
[32] = system: NCI-H522 lung
[33] = system: NCI/ADR-RES ovarian
[34] = system: OVCAR-3 ovarian
[35] = system: OVCAR-4 ovarian
[36] = system: OVCAR-5 ovarian
[37] = system: OVCAR-8 ovarian
[38] = system: PC-3 prostate
[39] = system: RPMI-8226 leukemia
[40] = system: RXF 393 renal
[41] = system: SF-268 CNS
[42] = system: SF-295 CNS
[43] = system: SF-539 CNS
[44] = system: SK-MEL-2 melanoma
[45] = system: SK-MEL-28 melanoma
[46] = system: SK-MEL-5 melanoma
[47] = system: SK-OV-3 ovarian
[48] = system: SN12C renal
[49] = system: SNB-19 CNS
[50] = system: SNB-75 CNS
[51] = system: SR leukemia
[52] = system: SW-620 colon
[53] = system: T-47D breast
[54] = system: TK-10 renal
[55] = system: U251 CNS
[56] = system: UACC-257 melanoma
[57] = system: UACC-62 melanoma
[58] = system: UO-31 renal

Nc1ccn(C2OC(CO)C(O)C2(F)F)c(=O)n1 (stereo not drawn)
GI50 [1]: 3.9 nM | GI50 [2]: 54.8 nM | GI50 [3]: 15.8 nM | TGI [3]: > 100000 nM | GI50 [4]: 25.2 nM and 3.79 nM | TGI [4]: 3480 nM | GI50 [5]: 74.4 nM and 17.8 nM | TGI [5]: > 100000 nM | GI50 [6]: 9.25 nM | TGI [6]: 2550 nM and 21400 nM | GI50 [7]: 61.4 nM and 26.8 nM | GI50 [8]: 568 nM | TGI [8]: > 100000 nM | GI50 [9]: 27.4 nM | TGI [10]: > 100000 nM | GI50 [11]: 940 nM | TGI [11]: > 100000 nM | GI50 [12]: 7.46 nM | TGI [12]: > 100000 nM | GI50 [13]: 2200 nM | TGI [13]: > 100000 nM | GI50 [14]: 28.6 nM | TGI [14]: 220 nM | GI50 [15]: 25.5 nM | TGI [15]: 805 nM and 3160 nM | GI50 [16]: 223 nM | GI50 [17]: > 100000 nM | TGI [17]: > 100000 nM | TGI [18]: > 100000 nM | GI50 [19]: 82.4 nM | GI50 [20]: 2840 nM | TGI [20]: > 100000 nM | GI50 [21]: 28.5 nM | TGI [21]: > 100000 nM | GI50 [22]: 6.39 nM | TGI [22]: 148 nM and 24.9 nM | GI50 [23]: 88.3 nM | GI50 [24]: 5.52 nM | TGI [24]: > 100000 nM | GI50 [25]: 7260 nM and 924 nM | TGI [25]: > 100000 nM | GI50 [26]: 18.9 nM | TGI [26]: > 100000 nM | GI50 [27]: 64.7 nM | TGI [27]: > 100000 nM | GI50 [28]: 44.1 nM | GI50 [29]: 146 nM and 95 nM | TGI [29]: > 100000 nM | GI50 [30]: 7.88 nM | GI50 [31]: 6.51 nM | GI50 [32]: 1350 nM | GI50 [33]: 14.4 nM | GI50 [34]: 3620 nM | TGI [34]: > 100000 nM | GI50 [35]: > 100000 nM | TGI [35]: > 100000 nM | GI50 [36]: 182 nM | TGI [36]: > 100000 nM | GI50 [37]: 12.2 nM | TGI [37]: 1020 nM | TGI [38]: > 100000 nM | GI50 [39]: 561 nM | TGI [39]: > 100000 nM | GI50 [40]: 36.3 nM | GI50 [41]: 37.8 nM | GI50 [42]: 38.9 nM | TGI [42]: 21.6 nM | GI50 [43]: 16.7 nM | TGI [43]: 553 nM and 63.3 nM | TGI [44]: > 100000 nM | TGI [45]: > 100000 nM | GI50 [46]: 39.2 nM | TGI [46]: > 100000 nM | GI50 [47]: 215 nM and 307 nM | TGI [47]: > 100000 nM | GI50 [48]: 39.1 nM | TGI [48]: 946 nM and 1110 nM | GI50 [49]: 13.1 nM | TGI [49]: 70100 nM | GI50 [50]: 247 nM and 25.8 nM and 30.6 nM | TGI [50]: 944 nM | GI50 [51]: 57.9 nM | GI50 [52]: 342 nM and 325 nM | TGI [52]: > 100000 nM | GI50 [53]: 1010 nM and 1390 nM | GI50 [54]: > 100000 nM | TGI [54]: > 100000 nM | GI50 [55]: 22.1 nM | TGI [55]: > 100000 nM | TGI [56]: > 100000 nM | GI50 [57]: 38.3 nM | GI50 [58]: 17.5 nM | TGI [58]: 685 nM and 433 nM and 327 nM

Source: PubChem BioAssay (NCI)
